From PMC12087874, “Biaryl Phosphates and Phosphonates as Selective Inhibitors of the Transcription Factor STAT4” (Angewandte Chemie (International Ed. in English), 2025)
Entries after “also recorded” stand apart in the source; their conditions may differ. Read-outs that look alike come from different tables or passages of the source.

How the values were obtained:
[1] = test system: STAT5a/5b; experiment: STAT5a/5b phosphorylation in K562 cells (Western blot); type: cell-based, human; details: Tyr694 (STAT5a)/Tyr699 (STAT5b), read-out: IC 50, STAT5a/5b‐phosphorylation
Description: (§1) Cells were […]
harvested by washing twice with ice -cold TBS, followed by resuspension in TBS supplemented with protease/phosphatase inhibitors (100 ng/ml aprotinin, 1 mM Na3VO4, 10 mM NaF, 1 mM […]
(§2) The components of cell lysates from treated cells, or heat-treated lysates from CETSA, were separated by SDS-PAGE (10%), transferred to nitrocellulose membrane (Bio-Rad) and detected using monoclonal rabbit primary antibodies (Cell Signaling), α-rabbit-HRP secondary antibody (Dako) and Western Lightning Plus chemiluminescence reagent (Perkin Elmer).
(§3) Bands were visualized using an ImageQuant system (GE Healthcare) and quantitated using ImageJ software (NIH). […]
(§4) The sitting drop was composed of 0.1 µl protein solution and 0.1 µl reservoir solution. Plates were stored at 19°C in a protein […]
(§5) In the first set of experiments, w e tried to crystallize STAT4 as a SUMO -STAT4 fusion protein […]
(§6) was cleaved off as described above.
Screening for crystallization conditions for tag-free STAT4 was performed both in the absence or presence of 1 equivalent of 6m or 6h. Since the chosen protein concentration of 3.6 mg/ml appeared to be too low, screening was repeated with a higher concentration of 6.4 mg/ml STAT4 for all conditions (corresponding to 100 µM 6m). Both the SUMO-STAT4 and the tag-free STAT4 preferentially precipitated under conditions containing polyethylene glycol. […]

[2] = test system: IFN‐γ induction; experiment: IFN-γ induction in TALL-104 cells; type: cell-based, human; details: 4 h, IL-12 or IL-12 and IL-18
Description: (§7) NK-92 cells (DSMZ) were cultured in α-MEM containing 12.5% fetal bovine serum (FBS), 12.5% horse serum, 2 mM L-glutamine, penicillin/streptomycin and 50 U/ml IL -2. TALL-104 cells (ATCC, LGC Standards) were cultured in RPMI 1640 medium containing 20% FBS, 2 mM L - glutamine, penicillin/streptomy cin and 100 U/ml IL-2. […]
(§8) NK-92 cells were treated with test compound or DMSO in 1.5 ml medium in 12 -well plates (Corning) for 2 h (final DMSO concentration 0.2%), in the presence of 50 ng/ml IL -12 (PeproTech). For IFN-γ experiments (Figure 6 and S6), NK -92 cells or TALL-104 cells were treated for 4 h in the presence of 50 ng/ml IL-12 and 10 ng/ml IL-18 (Bio-Techne). […]
as §2, §3, §4, §5
(§9) was cleaved off as described above. […]

[3] = molecular target: STAT3 (Homo sapiens, UniProt P40763); experiment: STAT3 Tyr705 phosphorylation in HCC-827 cells (Western blot); type: cell-based; design: endogenous in cells; details: serum-free conditions, read-out: IC 50, phosphorylation of STAT3 (Tyr705)
Sequence of STAT3 (P40763 whole entry): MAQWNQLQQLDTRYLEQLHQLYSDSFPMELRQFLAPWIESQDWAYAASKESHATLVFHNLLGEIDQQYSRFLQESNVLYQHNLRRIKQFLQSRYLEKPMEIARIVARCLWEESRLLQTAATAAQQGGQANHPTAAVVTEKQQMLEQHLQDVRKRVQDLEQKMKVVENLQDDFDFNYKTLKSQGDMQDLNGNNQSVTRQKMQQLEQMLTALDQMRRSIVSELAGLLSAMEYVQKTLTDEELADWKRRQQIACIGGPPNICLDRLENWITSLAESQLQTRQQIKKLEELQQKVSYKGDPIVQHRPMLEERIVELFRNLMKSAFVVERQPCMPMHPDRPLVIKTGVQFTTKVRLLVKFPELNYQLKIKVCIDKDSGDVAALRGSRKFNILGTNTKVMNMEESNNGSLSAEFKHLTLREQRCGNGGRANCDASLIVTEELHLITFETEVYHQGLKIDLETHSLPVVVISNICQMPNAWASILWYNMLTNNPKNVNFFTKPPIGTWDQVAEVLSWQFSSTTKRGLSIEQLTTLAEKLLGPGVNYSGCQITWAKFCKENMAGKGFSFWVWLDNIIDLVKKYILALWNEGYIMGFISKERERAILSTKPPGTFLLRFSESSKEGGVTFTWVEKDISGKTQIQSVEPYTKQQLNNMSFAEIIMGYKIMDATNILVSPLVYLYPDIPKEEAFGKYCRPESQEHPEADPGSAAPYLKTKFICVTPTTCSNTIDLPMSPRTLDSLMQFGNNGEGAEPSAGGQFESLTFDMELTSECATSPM
Description: HCC-827 cells (DSMZ) and K562 cells
(DSMZ) were cultured in RPMI 1640 medium containing 10% FBS, 2 mM L -glutamine and penicillin/streptomycin. HCC -827 cells were subcultured by briefly rinsing with sterile PBS followed by incubation with 0.25% Trypsin-EDTA solution before inactivation by addition of cell culture medium (all reagents apart from cell lines were from Gibco at Thermo Fisher Scientific). […]
as §1
harvested by washing twice with ice -cold TBS, followed by resuspension in TBS supplemented with protease/phosphatase inhibitors (100 ng/ml aprotinin, 1 mM Na3VO4, 10 mM NaF, 1 mM PMSF). The adherent HCC-827 cells were mechanically separated from the culture surface using plastic cell scrapers (A. Hartenstein). […]
as §2, §3, §4

[4] = molecular target: T1, STAT4 (Homo sapiens, UniProt Q14765); experiment: STAT4 phosphorylation in TALL-104 cells stimulated by IL-12 or IL-12 and IL-18; type: cell-based; design: utilizing cellular lysates from the STAT4‐expressing natural killer cell line NK‐92; endogenous in cells; host or cells: NK-92 (DSMZ); details: 4 h
T1 sequence (Q14765 1-748): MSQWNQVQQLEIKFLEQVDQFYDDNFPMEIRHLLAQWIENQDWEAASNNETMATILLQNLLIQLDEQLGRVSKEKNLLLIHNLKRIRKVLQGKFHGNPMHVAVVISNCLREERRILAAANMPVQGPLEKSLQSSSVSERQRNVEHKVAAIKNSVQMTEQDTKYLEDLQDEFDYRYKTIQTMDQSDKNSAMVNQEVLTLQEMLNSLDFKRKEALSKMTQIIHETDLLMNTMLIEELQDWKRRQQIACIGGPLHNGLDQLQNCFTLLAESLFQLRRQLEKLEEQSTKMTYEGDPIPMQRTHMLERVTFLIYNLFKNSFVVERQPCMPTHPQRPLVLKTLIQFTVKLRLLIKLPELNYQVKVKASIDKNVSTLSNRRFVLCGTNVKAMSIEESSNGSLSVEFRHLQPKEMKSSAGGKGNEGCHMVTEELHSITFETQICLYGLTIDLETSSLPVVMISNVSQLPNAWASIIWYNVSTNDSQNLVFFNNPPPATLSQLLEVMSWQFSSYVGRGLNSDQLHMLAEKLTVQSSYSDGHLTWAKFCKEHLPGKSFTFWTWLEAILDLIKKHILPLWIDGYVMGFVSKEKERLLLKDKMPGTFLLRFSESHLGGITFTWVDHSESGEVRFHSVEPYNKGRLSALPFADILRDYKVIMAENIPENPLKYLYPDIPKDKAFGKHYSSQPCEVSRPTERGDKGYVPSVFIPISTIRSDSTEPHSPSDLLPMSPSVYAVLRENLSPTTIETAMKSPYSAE
Description: as §7, §8, §2, §3, §4, §5, §9

[5] = test system: IFN‐γ induction; experiment: IL-12/IL-18-mediated IFN-γ induction in NK-92 cells; type: cell-based, human; details: 4 h, 50 ng/ml IL-12 and 10 ng/ml IL-18
Description: (§10) NK-92 cells (DSMZ) were cultured in α-MEM containing 12.5% fetal bovine serum (FBS), 12.5% horse serum, 2 mM L-glutamine, penicillin/streptomycin and 50 U/ml IL -2. […]
as §8, §2, §3, §4, §5, §6
Screening for crystallization conditions for tag-free STAT4 was performed both in the absence or presence of 1 equivalent of 6m or 6h. […]

[6] = molecular target: T1, STAT4; experiment: IL-12-induced STAT4 Tyr693 phosphorylation in NK-92 cells (Western blot); type: cell-based; design: utilizing cellular lysates from the STAT4‐expressing natural killer cell line NK‐92; endogenous in cells; host or cells: NK-92 (DSMZ)
Description: as §10, §2, §3, §4, §5, §6
Screening for crystallization conditions for tag-free STAT4 was performed both in the absence or presence of 1 equivalent of 6m or 6h. Since the chosen protein concentration of 3.6 mg/ml appeared to be too low, screening was repeated with a higher concentration of 6.4 mg/ml STAT4 for all conditions (corresponding to 100 µM 6m). Both the SUMO-STAT4 and the tag-free STAT4 preferentially precipitated under conditions containing polyethylene glycol. In one set of experiments, we also screened for conditions in the presence of the high-affinity peptide GY(PO3H2)LPQNID adapted from the IL-12 receptor. However, none of the conditions resulted in the growth of STAT4 crystals (Table S4).

IC50 [1]: > 25 µM | IC50 [3]: 19 µM
SMILES: Cc1cc(-c2ccc(C(F)(F)P(=O)(OCOC(=O)C(C)(C)C)OCOC(=O)C(C)(C)C)c(F)c2)cs1 [Compound 9]
IFN‐γ induction [2]: inhibited | STAT4 phosphorylation stimulated by IL‐12 alone or co‐stimulated by IL‐12 and IL‐18 [4]: inhibited | IL12/IL‐18‐mediated IFN‐γ induction [5]: strongly reduced; also recorded: inhibits | inhibition of IL‐12‐induced STAT4 Tyr693 phosphorylation ([6]; 2 h, presence of 25% serum): moderately inhibits | IC50 ([6]; 2 h, presence of 25% serum, read-out: IC 50, IL‐12‐induced STAT4 phosphorylation): 77 µM | IL‐12/IL‐18‐mediated STAT4 phosphorylation ([6]; 4 h, 50 ng/ml IL-12 and 10 ng/ml IL-18): strongly reduced; also recorded: inhibits | IC50 ([6]; IL-12, absence of serum, read-out: IC 50, STAT4 Tyr693 phosphorylation): 3.3 µM
